Key:
sVEGFR-1 = sVEGFR-1 transcription in bone marrow-derived macrophages (LysMcre control vs HIF-2αflox/flox/LysMcre); assay type: cell-based, mice; conditions: p=0.036, FIG. 11F
Description: (§1) HIF-2α^flox/flox mice (originally developed by Dr. Celeste Simon, University of Pennsylvania) and LysMcre recombinase mice (originally developed by Irmgard Foerster, University of Duesseldorf) (both purchased from The Jackson Laboratory, Bar Harbor, Me.) were crossed to generate mice homozygous for both LysMcre and the floxed HIF-2α allele. LysMcre recombinase mice, which express no floxed alleles, were used as controls. Deletion of HIF-2α in HIF-2α^flox/flox/LysMcre macrophages, but not the LysMcre control macrophages, was confirmed at the transcript level by real-time PCR.
To generate bone marrow-derived macrophages (BDMs), femoral bone marrow was isolated and progenitor cells were plated in RPMI-1640 supplemented with 10% FBS, 1% PSA, 10 μg/mL of polymyxin B, and 20 ng/mL of recombinant murine M-CSF. Cells were cultured for 5 days with the addition of fresh M-CSF every other day. […]
Human monocytes were left untreated or were stimulated with 100 ng/mL GM-CSF at normoxia or at 0.5% O2. […] Data were analyzed according to the comparative threshold method and normalized against the β-actin internal control transcript. Results are semi-quantitative and represent the fold difference in transcript levels in a particular sample as compared with levels in untreated cells from the same donor. […]

[1] = test system: endothelial cell marker CD31; experiment: Tumor vascularity by CD31 immunohistochemistry in melanoma-bearing mice; assay type: in vivo; conditions: mice treated with the control antibody; p=0.022; FIG. 14B
[2] = test system: tumor growth in HIF-2αflox/flox/LysMcre and LysMcre mice; experiment: Tumor growth in mice with myeloid-specific deletion of HIF-2α vs LysMcre control mice; assay type: in vivo; conditions: FIG. 15
Description: as §1
The disclosed HIF-2α stabilizer is not targeted specifically to macrophages, and will stabilize HIF-2α in all tissues, not only the tumor-associated macrophages. In order to determine the role of macrophages in the anti-tumor response to the disclosed HIF-2α stabilizer, mice with a myeloid-specific deletion of HIF-2α (HIF-2α^flox/flox/LysMcre mice) were utilized.

VEGF mRNA = VEGF mRNA expression (qPCR) in HIF-1α−/− fibroblasts; assay type: cell-based, murine; conditions: hypoxic conditions (1% O2), 1, 10 and 100 μM, vs. hypoxia control, FIG. 1B
Method: Total RNA was isolated from tissues and cells by using TRIzol™ Reagent (Invitrogen) and the RNeasy kit (Qiagen), respectively. 1 μg RNA was used for reverse transcription using SuperScript II First-Strand Synthersis System (Invitrogen). cDNA's were amplified in a SYR Green or TaqMan Universal Master Mix (Applied Biosystems). Quantitative PCR (qPCR) was performed on ABI Prism 7700 sequence detection system. PCR conditions are: 10 min at 95° C., 40 cycles of 15 seconds at 95° C. and 1 minute at 60° C. The relative amount of mRNA was calculated after normalization to β-actin.
Cells were cultured in DMEM (#11965-092, Invitrogen) supplemented with 10% fetal bovine serum (Invitrogen), 100 U/mL penicillin and […] streptomycin. For glucose deprivation, DMEM without glucose (#11966-025, Invitrogen) was used.
Mouse embryonic fibroblasts (MEFs) were isolated from E12.5 embryos and immortalized by stable transfection with SV40 large T antigen.

HIF-2α = experiment: Immunoblot for HIF-2α in murine bone marrow-derived macrophages; assay type: cell-based; conditions: murine bone marrow-derived macrophages treated 18 hours; p=0.001; FIG. 11A
Method: To generate bone marrow-derived macrophages (BDMs), femoral bone marrow was isolated and progenitor cells were plated in RPMI-1640 supplemented with 10% FBS, 1% PSA, 10 μg/mL of polymyxin B, and 20 ng/mL of recombinant murine M-CSF. Cells were cultured for 5 days with the addition of fresh M-CSF every other day. Differentiated BDM were serum-starved for 2 hours and then treated with 100 ng/mL of murine GM-CSF and/or 25 μM the disclosed HIF-2α stabilizer in RPMI-1640 containing 1% FBS and 10 μg/mL polymixin B. Culture supernatants were collected after 72 hours and assayed for VEGF and sVEGFR-1 content by ELISA (R&D Systems).
In order to confirm the selective upregulation of HIF-2α by the disclosed HIF-2α stabilizer, murine bone marrow-derived macrophages were treated with the disclosed HIF-2α stabilizer for 18 hours, and cells were then lysed and immunoblotted for HIF-1α and HIF-2α.

O=C(O)CNC(=O)c1ncc(-c2cccc(F)c2)cc1O [disclosed HIF-2α stabilizer, {[5-(3-Fluorophenyl)-3-hydroxypyridine-2-carbonyl]amino} acetic acid]
sVEGFR-1 transcription (sVEGFR-1): induced
tumor vascularity (CD31) [1]: decreased tumor vascularity
tumor growth ([2]; LysMcre control mice): inhibited tumor growth
tumor growth ([2]; mice with HIF-2α-deficient macrophages, magnitude much less than in control mice): reduced tumor growth
VEGF mRNA (relative amount) (VEGF mRNA): dramatic reduction
HIF-2α protein (HIF-2α): increase

— patent publication US20170105981A1, “METHODS FOR STABILIZING HYPOXIA INDUCIBLE FACTOR-2 ALPHA AS A METHOD FOR TREATING CANCER” (The Ohio State Innovation Foundation, priority 2011, published 2017)
